Assay results from US10724100B2, “Systems and methods for treating patients having a genetic predisposition to develop prostate cancer” (Institute for Cancer Research, priority 2015, dated 2020).

Test system: peripheral blood lymphocytes (PBLs) of prostate cancer patients and matched controls
Experiment: γH2AX foci immunofluorescence in PHA/IL-2-stimulated peripheral blood lymphocytes after DNA damaging agents
Assay type: cell-based, human
Conditions: PBLs from 9 patients and 10 age- and gender-matched controls; 10 μM aphidicolin or 25 μM etoposide; fixed 2 hours later; p=0.0337 (aphidicolin), p=0.007 (etoposide)
Method: Peripheral blood lymphocytes (PBLs) were available from 9/12 of the exome sequenced patients and 10 age-matched and gender-matched individuals without a cancer diagnosis or a family history of cancer. […] For analysis of DDR, cells were cultured in RPMI-1640 containing 15% fetal bovine serum (HyClone Laboratories, Logan, Utah), 2 mM L-glutamine (Life Technologies, Grand Island, N.Y.), 50 μM 2-mercaptoethanol (Sigma-Aldrich, St. Louis, Mo.), 0.2 units human recombinant insulin (Sigma) per ml, 50 units penicillin and 50 mg streptomycin per ml (complete RPMI), and then stimulated with phytohemagglutinin (PHA)-M (Life Technologies, Grand Island, N.Y.) and recombinant human interleukin 2 (IL-2) (NCI Preclinical Repository) for 72 hours. […] For immunofluorescence, cells were allowed to attach to poly-d-lysine-coated 96-well plates, stained with anti-γH2AX antibody (#05-636, Millipore, Temecula, Calif.). Sixteen images per well were acquired at 20× (with each image acquired in 2 channels to detect γH2AX with TRITC and total DNA with DAPI) utilizing the ImageXpress micro automated microscope (Molecular Devices, Sunnyvale, Calif.) driven by MetaXpress software. […]

In the case of `C[C@@]1(CO)[C@H](O)CC[C@@]2(C)[C@H]1CC[C@H]1C[C@@H]3C[C@@]12CC[C@]3(O)CO` [aphidicolin], the “γH2AX induction (nuclear γH2AX foci per cell), cases versus controls” value is reported as “higher magnitude of induction seen in prostate cancer patients”.
